In patent US9334299B2, “Water-soluble camptothecin derivative, pharmaceutical composition and use thereof” (Hunan Fangshenghuamei Medical Tech. Co. Ltd., priority 2011, dated 2016):
“Also recorded” adds a separate entry of the source. Like-named read-outs stand apart in the source and are kept apart here.

Experiments:
Format in all cases: cell-based
[1] = test system: HCT116 (colon cancer) cells; assay: CellTiter-Glo cell viability assay, HCT116 cells; conditions: for viability at 0.1 µM / viability at 1 µM / viability at 10 µM: Homo sapiens, HCT-116, 48 hours, read-out: HCT116 cell viability after 48 hours of treatment; for cell killing / dose-dependent cell death in HCT116 cells, result in words: compared with CPT, 5-FU, Etoposide (FIGS. 7-8, Table 5)
Text: (§1) To determine the ability of Compound Dix-905 (also referred as Compound 905) to kill cancer cells, we performed a cell viability assay via CellTiter-Glo kit (Promega) using various cell lines. The kit measures the ATP levels via an enzymatic Luciferase assay. Viable cells, having normal metabolic rates and producing normal levels of ATP, will is have a high turnover of Luciferase substrates, which requires ATP for the enzymatic reaction and emits luminescent signals. By contrast, dying cells will have lower outcome of luminescent signals since their metabolic functions are diminished. The emitted luminescent signals will then be captured by a luminometer.
(§2) To perform the viability assay, small cell lung cancer cells (ATCC catalog No. H146), breast cancer cells (ATCC catalog No. MDAMB231) or colon cancer cells (ATCC catalog No. HCT116) were seeded in 96 wells and treated via Compound Dix-905 and other anti-cancer drugs for a time period of 24, 48, 72 hours. At each respective time point, cells were mixed with Cell Titer Glow reagents for 1 h and evaluated for luminescent signals.
In the “CPT” group, the is HCT116 cells were treated with CPT (dissolved in DMSO) in 4 concentrations (0, 0.1, 1.0, 10 μM, respectively) for 48 hours. In the Dix-902, Dix-904 and Dix-906 groups, HCT116 cells were treated respectively with the corresponding compounds (dissolved in a saline solution) in 4 concentrations (0, 0.1, 1.0, 10 μM, respectively) for 48 hours.

[2] = test system: H146 (small cell lung cancer) cells; assay: CellTiter-Glo cell viability assay, H146 cells; conditions: for viability at 0.1 µM / viability at 1 µM / viability at 10 µM: Homo sapiens, read-out: H146 cell viability after 48 hours of treatment; for cell killing / dose-dependent cell death in H146 cells, result in words: compared with CPT, floxuridine, etoposide (FIGS. 4-5, Table 3)
Text: as §1, §2
In the “CPT” group, the H146 (small cell lung cancer) cells were treated with CPT (dissolved in DMSO) in 4 concentrations (0, 0.1, 1.0, 10 μM, respectively) for 48 hours; In the Dix-902, Dix-904 and Dix-906 groups, H146 (small cell lung cancer) cells were treated respectively with the corresponding compounds (dissolved in a saline solution) in 4 concentrations (0, 0.1, 1.0, 10 μM, respectively) for 48 hours.

[3] = test system: MDAMB231 (breast cancer) cells; assay: CellTiter-Glo cell viability assay, MDAMB231 cells; conditions: Homo sapiens, read-out: MDAMB231 cell viability after 48 hours of treatment
Text: as §1, §2
In the “CPT” group, the MDAMB231 (breast cancer) cells were treated with CPT (dissolved in DMSO) in 4 concentrations (0, 0.1, 1.0, 10 μM, respectively) for 48 hours. In the Dix-902, Dix-904 and Dix-906 groups, MDAMB231 (breast cancer) cells were treated respectively with the corresponding compounds (dissolved in a saline solution) in 4 concentrations (0, 0.1, 1.0, 10 μM, respectively) for 48 hours.

[4] = test system: Caspase 3/7 in H1693 cells; assay: Caspase-Glo 3/7 caspase activation assay, H1693 cells; conditions: FIG. 3
Protocol: (§3) For caspase activation, similar assays could be performed using the Caspase-Glo 3/7kit from Promega after cells were treated with respective agents for various time points. The mechanism of Caspase 3/7 Glow assay is by using Caspase 3/7 substrate fused with Luciferase substrate, which could be cleaved by activated Caspase 3/7. The released Luciferase substrate then undergoes an enzymatic reaction and emits luminescent signals. In contrast to the viability assay, the limiting step for this assay is caspase activation. Dying cells bearing the activated Casapses will have a high readout of luminescent signals in a luminometer.

[5] = test system: H1693 cells; assay: Cell viability (cell killing) assay, H1693 cells; conditions: compared with CPT, floxuridine, etoposide (FIGS. 1-2)
[6] = test system: Caspase 3/7 in H146 cells; assay: Caspase-Glo 3/7 caspase activation assay, H146 cells; conditions: FIG. 6
Protocol: as §3

Structure (SMILES)	viability at 0.1 µM [1] [%]	viability at 1 µM [1] [%]	viability at 10 µM [1] [%]	cell killing / dose-dependent cell death in HCT116 cells, result in words [1]	viability at 0.1 µM ([2]; NCI-H146, 0.1 μM, 48 hours) [%]	viability at 1 µM ([2]; NCI-H146, 1.0 μM, 48 hours) [%]	viability at 10 µM ([2]; NCI-H146, 10 μM, 48 hours) [%]	viability at 0.1 µM ([3]; MDA-MB-231, 0.1 μM, 48 hours) [%]	viability at 1 µM ([3]; MDA-MB-231, 1.0 μM, 48 hours) [%]	viability at 10 µM ([3]; MDA-MB-231, 10 μM, 48 hours) [%]	viability at 0.1 µM ([2]; NCI-H146, 48 h) [%]	viability at 1 µM ([2]; NCI-H146, 48 h) [%]	viability at 10 µM ([2]; NCI-H146, 48 h) [%]	cell killing / dose-dependent cell death in H146 cells, result in words [2]	viability at 0.1 µM ([3]; MDA-MB-231, 48 h) [%]	viability at 1 µM ([3]; MDA-MB-231, 48 h) [%]	viability at 10 µM ([3]; MDA-MB-231, 48 h) [%]	further results
CC[C@@]1(O)C(=O)OCc2c1cc1n(c2=O)Cc2cc3ccccc3nc2-1 [CPT, Camptothecin]	96	76	11	Dose-dependent cell death	65	51	24	13	5	3	–	–	–	–	–	–	–	–
CC[C@@]1(OP(=O)(O)OC[C@H]2O[C@@H](n3cnc4c(N)ncnc43)C[C@@H]2O)C(=O)OCc2c1cc1n(c2=O)Cc2cc3ccccc3nc2-1 [Dix-904]	95	70	10	higher than that CPT	–	–	–	–	–	–	67	44	19	similarly to or even slightly better than that of CPT	13	3	1	–
CC[C@@]1(OP(=O)(O)OC[C@H]2O[C@@H](n3cc(F)c(=O)[nH]c3=O)C[C@@H]2O)C(=O)OCc2c1cc1n(c2=O)Cc2cc3ccccc3nc2-1 [Dix-905]	–	–	–	Dose-dependent cell death	–	–	–	–	–	–	–	–	–	cell killing response in H146 better than that of CPT; also recorded: more effective cell killing in H146 than that of CPT, floxuridine, and etoposide	–	–	–	cell death in H1693 via Caspase activation (apoptotic pathway) [4]: time- and dose-dependent cell death; cell killing / dose-dependent cell death in HCT116 cells, result in words ([1]; listed as DIX-905): more effective in cell killing than that of CPT, 5-FU and Etoposide; cell killing in H1693 cells, result in words [5]: cell killing response better than that of CPT; also recorded: more effective cell killing in H1693 than that of CPT, floxuridine, and etoposide; cell death in H146 via Caspase activation (apoptotic pathway) [6]: time- and dose-dependent cell death
CC[C@@]1(OP(=O)(O)OC[C@H]2O[C@@H](n3ccc(N)nc3=O)C[C@@H]2O)C(=O)OCc2c1cc1n(c2=O)Cc2cc3ccccc3nc2-1 [Dix-902]	87	68	9	higher than that CPT	–	–	–	–	–	–	66	43	20	similarly to or even slightly better than that of CPT	15	4	2	–
CC[C@@]1(OP(=O)(O)OC[C@H]2O[C@@H](n3cc(C)c(=O)[nH]c3=O)C[C@@H]2O)C(=O)OCc2c1cc1n(c2=O)Cc2cc3ccccc3nc2-1 [Dix-906]	90	71	8	higher than that CPT	64	45	21	14	4	3	–	–	–	similarly to or even slightly better than that of CPT	–	–	–	–
